From US5801182A, “Amine substituted compounds” (Cell Therapeutics, Inc., priority 1995, dated 1998) come the findings set out here.

Bounds are passed on as bounds.

The test system of series [1] is Mouse bone marrow cells (CFU-GM). Put plainly: CFU-GM colony assay, effect on normal bone marrow cells. Type of series: cell-based. The note with it: for effect on normal cells compared to known chemotherapeutic compounds in vitro: vs vinblastine, 5-fluorouracil, doxorubicin or cisplatinum; for toxicity for normal mouse marrow cells: 8 hours incubation, CFU-GM after 7 days, FIGS. 12-16. The text has this: This example illustrates a method for examining an effect of the inventive compounds, showing potential as cancer therapies on normal cells. This assay has been used clinically to evaluate recovery of patients' marrow following chemotherapy or radiation. In this specific example, inventive compounds nos.
Mouse bone marrow cells are useful in this assay because they produce colonies, which can later be counted, in culture. The colonies are called colony forming unit-granulocyte macrophage (CFU-GM) and depend on a source of colony stimulating factor for growth.
Cells were cultured with inventive compounds nos. 3563, 3576, 3581, 3584 and 4500, to comparatively evaluate an effect on normal cells of inventive compounds identified as potential cancer therapies. Procedurally, cells were incubated for 8 hours with various concentrations of these compounds. A negative control without any compound was simultaneously prepared. After 8 hours, the incubated cells were washed thoroughly and a consistent number were subsequently plated to obtain CFU-GM. Colonies were permitted to grow for 7 days at 37° C., in 5% CO2. After 7 days of growth, colony growths were counted microscopically. Data obtained in this assay for inventive compounds nos. 3563, 3576, 3581, 3584 and 4500 are plotted in FIGS. 12, 13, 14, 15 and 16, respectively. The data in the figures are shown to compare the colonies counted for cells incubated with varying concentrations of the compounds tested against the negative control, without compound. At concentrations ranging from 5 to 30 μM, more colonies existed for cells incubated with the inventive potential cancer compound than with known, chemotherapeutic agents. Compound no.

The test system of series [2] is HIV long terminal repeat (LTR) promotor. Put plainly: Inhibition of reporter gene (alkaline phosphatase) expression directed by HIV-LTR promotor in 293-EBNA cells. Type of series: cell-based. The note with it: Human immunodeficiency virus 1; reporter gene directed by HIV-LTR promotor in 293-EBNA cells; FIGS. 17, 19, 21. The text has this: This example is an assay used to measure anti-viral activity of inventive compounds nos. […] This assay is predictive of anti-viral activity for retroviruses. Specifically,a plasmid construct, pHIV.AP, using the human immunodeficiency virus (HIV) long terminal repeat (LTR) promotor [derived from pU3R-III CAT (Sodroski et al. Science, Vol. 227, page 171, 1985) to direct the expression of secreted human placental alkaline phosphatase reporter gene and an expression vector for a 72 amino acids tat protein from HIV (Frankel et al., Cell, Vol. 55, pages 1189-1193, 1988) were transfected into a tumor cell line (e.g., 293-EBNA cells). The stably transfected cells were treated with various concentrations of the inventive compounds. The expression of the alkaline phosphatase (AP) reporter gene in the individual cultures was then measured by following the change in absorbance at A405 of cell conditioned media in the presence of a suitable substrate (e.g., ortho-nitrophenol phosphate). Berger et al., Gene, Vol. 66, pages 1-10, 1988.
For orientation: In a reporter assay the amount or activity of a reporter protein is the signal.

Series [3] in a line: Viability of 293-EBNA cells (alamarBlue colorimetric assay). Type of series: cell-based. The settings on record: human, 293-ebna cells; alamarBlue; FIGS. 18, 20, 21; read-out: LD50, 293-EBNA cells. Here is the method: (§1) The effect of respective inventive compounds on the viability of 293-EBNA cells was measured by a colorimetric assay that uses the alamarBlue® dye (purchased from Alamar Biosciences, Inc.) to report cell proliferation, viability and cytotoxicity. This dye is an oxidation-reduction (Redox) indicator that changes color in response to chemical reduction of growth medium resulting from cell growth. The general procedure involves adding alamarBlue® in an amount equal to 10% of the culture volume, returning the culture to incubator for four hours, and measuring the absorbance at 570 nm after subtraction of background absorbance at 600 nm.
Background: Alamar Blue is a resazurin reagent that responds to reducing activity.

The subject of the next series is 293-EBNA cells. The series is described as above. Type of series: cell-based. Here is the method:
as §1

A further series deals with human stromal cells. Nature of the series: PDGF-induced proliferation in human stromal cells. Type of series: cell-based. The settings on record: for concentration at which comparative compounds' activity is apparent: 50 ng/ml PDGF-BB, human stromal cells, FIG. 23. Here is the method: 3506 on PDGF-induced proliferation in human stromal cells. Procedurally, human stromal cells were starved in serum-free media for 24 hours and then stimulated with 50 ng/ml PDGF. Compound no. 3506 was added at various concentrations one hour prior to PDGF stimulation and pulsed for 24 hours. Cells were harvested and cell proliferation measured having background counts (i.e., starved cells) at about 10% of control levels.
Human stromal cells were starved in serum-free media for 24 hours and then stimulated with 50 ng/ml PDGF-BB. The drugs were added at various concentrations one hour prior to PDGF stimulation. Tritiated thymidine was added at the time of PDGF stimulation and pulsed for 24 hours. Cells were harvested and cell proliferation measured (FIG. 23). Background counts (i.e., starved cells) were about 10% of control levels.

The next series relates to thymocytes. Put plainly: Thymocyte proliferation and activation, co-stimulated with Con A and IL-2. It is filed as cell-based, Balb/C mice. The settings on record: Mus musculus, 2 h, compound added two hours prior, FIGS. 6-11. Here is the method:
3506, 3556, 3563, 3576, 3581, 3582 and 3584 on thymocyte proliferation and activation, co-stimulated with Concanavalin A (Con A) and interleukin-2 (IL-2), at various concentrations of the compounds (IC50). Con A and IL-2 together stimulate T cell proliferation and differentiation.
Thymuses, obtained from normal, female Balb/C mice, were dissociated and plated into 96-well plates at a density of 2×10^5 cells/well. Con A ([…]) and IL-2 (15 U/ml) were added to the wells. The cells were incubated for 4 days at 37° C. On day 4, the cells were pulsed with tritiated thymidine and incubated for an additional 4 hours. Incorporated tritiated thymidine of harvested cells was determined in a liquid scintillation counter. Results plotted as dose concentration versus proliferation for inventive compounds nos. 3506, 3556, 3563, 3576, 3581, 3582 and 3584 are shown in FIGS. 6 (3506), 7 (3556), 8 (3563), 9 (3576), 10 (3581 and 3582) and 11 (3584). Respective concentrations of inventive compound (shown in the figures) were added two hours prior to Con A and IL-2 activation. Background counts were less than 200 cpm.

In series [4] the test system is Balb/3T3 cells. Put plainly: PDGF-induced proliferation of Balb/3T3 cells (tritiated thymidine). Type of series: cell-based. The settings on record: Mus musculus, BALB/3T3, 24 h; PDGF-stimulated; FIGS. 2 and 4; read-out: concentrations inhibiting proliferation of Balb/3T3 cells stimulated by PDGF. Here is the method:
Disregulated PDGF-proliferative response has been linked to a variety of diseases, including, e.g., restenosis, atherosclerosis, fibrosis, and tumor cell angiogenesis. Balb/3T3 cells respond vigorously to PDGF stimulation, and are useful in vitro models for further study of PDGF-induced proliferation.
Balb/3T3 cells were plated in low serum-containing medium for 24 hours prior to stimulation with various concentrations of inventive compounds nos. 3556 and 4500. PDGF was added at varying concentrations along with tritiated thymidine. The cells were allowed to incubate for one day, following addition of PDGF and thymidine. Twenty-four hours later, the cells were harvested and counted by liquid scintillation counting. FIGS. 2 and 4 report data for inventive compounds nos. 3556 and 4500, respectively, obtained in this proliferation assay. The results shown in each respective figure illustrate that inventive compounds nos.

Series [5] deals with Balb/3T3 cells. Nature of the series: Viability (cytotoxicity) assay of Balb/3T3 cells with BCECF. Type of series: cell-based. The settings on record: at the concentrations at which the compounds inhibit proliferation; vs control value of 100%; FIGS. 3 and 5. Here is the method: In conjunction with the Balb/3T3 proliferation assay, a related viability assay was conducted to assess the cytotoxicity of compounds which inhibit proliferation in this system. The assay protocol was identical to that performed above except that tritiated thymidine was not added after the 24 hour incubation with PDGF. In this cytotoxicity assay, after incubating the cells, a 10 μM solution of BCECF was added and the cells were incubated for 30 minutes at 37° C. Following this incubation, BCECF was replaced with PBS and the plate read for fluorescence in a Millipore cytofluorometer. Data obtained was plotted as a percent of control versus concentration of inventive compound tested. FIGS. 3 and 5 represent the results of this viability assay, for compounds nos. 3556 and 4500, respectively.

As a reminder, the IC50 is the point on the concentration scale where inhibition reaches its midpoint. A higher IC50 goes with weaker potency in that assay. Turning to `CCCCCCCCCCNCCCCCCCCCCCn1c(=O)c2c(ncn2C)n(C)c1=O` [compound 3581], the “effect on normal cells compared to known chemotherapeutic compounds in vitro” value in series [1] is listed as “less deleterious to normal cells”. This compound gave an IC50 in series [2] below 5 µM. Further, in series [3], the CC50 is below 10 µM.
As for `CCCCCCCCCCCCCCNCCCCCCCCCCCn1c(=O)c2c(ncn2C)n(C)c1=O` [compound 3582], the half-maximal inhibitory concentration (IC50) in series [2] is below 5 µM. The CC50 in series [3] is below 5 µM.
In series [2], `CCCCCCCCCCCCCCCNCCCCCCCCCCCn1c(=O)c2c(ncn2C)n(C)c1=O` [compound no. 4508] registered an IC50 below 10 µM. Further, the CC50 in series [3] is below 10 µM.
In the case of `CCCCCCN(CCCCCC)CCCCCCCCCCCn1c(=O)c2c(ncn2C)n(C)c1=O` [compound no. 3590], in series [2], the IC50 is below 20 µM. Moreover, the “cytotoxicity to 293-EBNA cells (in words)” value (from here on “cytotoxicity … (in words)”) with 293-EBNA cells is “little cytotoxicity even at >32 μM”.
`CCCCCCCCCCCNCCCCCCn1c(=O)c2c(ncn2C)n(C)c1=O` [compound no. 3506]: in the series with human stromal cells (50 ng/ml PDGF, compound added one hour prior, FIG. 1), the “PDGF-induced proliferation in human stromal cells” value is “inhibition of PDGF-induced proliferation”. This compound also returned an IC50 in the series on thymocytes of 2.3 µM.
In series [2], `COc1cc(CNCCCCCCCCCCCn2c(=O)c3c(ncn3C)n(C)c2=O)cc(OC)c1OC` [compound no. 3593] gave a half-inhibitory concentration (IC50) below 25 µM. The “cytotoxicity … (in words)” value in the series with 293-EBNA cells was “little cytotoxicity, even at >32 μM”.
For `CCCCCCNCCCCCCCCCCCn1c(=O)c2c(ncn2C)n(C)c1=O` [compound no. 3580], the 50% inhibitory concentration (IC50) in series [2] is below 10 µM. Moreover, the CC50 in series [3] is below 30 µM. Also, in the series with 293-EBNA cells, the “cytotoxicity … (in words)” value was “minimal cytotoxicity”.
`CCCCCCCCCCCCCNCCCCCCCCCCCn1c(=O)c2c(ncn2C)n(C)c1=O` [compound 4507] yielded an IC50 in series [2] below 4 µM. Moreover, the CC50 in series [3] is below 7 µM.
Take `CCCCCCCCCCCCN(C)CCCCCCCCCCCn1c(=O)c2c(ncn2C)n(C)c1=O` [compound 3576]: the IC50 is 0.26 µM in the series with thymocytes and below 10 µM in series [2]. Besides, the “effect on normal cells compared to known chemotherapeutic compounds in vitro” value in series [1] is “less deleterious to normal cells”. Moreover, in series [3], the CC50 was below 15 µM.
With `CCCCCCCCCCCCCCCCNCCCCCCCCCCCn1c(=O)c2c(ncn2C)n(C)c1=O` [compound 3584], the “effect on normal cells compared to known chemotherapeutic compounds in vitro” value in series [1] is given as “less deleterious to normal cells”. In addition, the IC50 in series [2] is below 10 µM. The CC50 in series [3] was below 15 µM.
As for `CC(CCCCn1c(=O)c2c(ncn2C)n(C)c1=O)N(C)C` (centres unmarked) [B, 1-(5-dimethylaminohexyl)-3,7-dimethylxanthine], the “concentration at which comparative compounds' activity is apparent” value in the series on human stromal cells is recorded as “millimolar concentrations”.
Consider `CCCCCCN(C)CCCCCCCCCCCn1c(=O)c2c(ncn2C)n(C)c1=O` [compound no. 4500], for which the minimal effective concentration in the series on Balb/3T3 cells [4] is below 30 µM. For the same compound, the “cytotoxicity to Balb/3T3 cells” value with Balb/3T3 cells [5] is “not cytotoxic to any cells”. For the same compound, in series [1], the “toxicity for normal mouse marrow cells” value is given as “virtually no toxicity at elevated concentrations”. For the same compound, the IC50 in series [2] was below 10 µM.
With `CCCCCCCCCCCCNCCCCCCCCCCCn1c(=O)c2c(ncn2C)n(C)c1=O` [compound no. 3563], in series [1], the “toxicity for normal mouse marrow cells” value was “most cytotoxic to proliferative potential of the mouse marrow cells” and the “effect on normal cells compared to known chemotherapeutic compounds in vitro” value is recorded as “less deleterious to normal cells”. The IC50 in series [2] was below 4 µM. For the same compound, the CC50 in series [3] is below 7 µM.
On to `CC(=O)CCCCCCn1c(=O)c2c(ncn2C)n(C)c1=O` [A, 1-(7-oxooctyl)-3,7-dimethylxanthine], for which the “concentration at which comparative compounds' activity is apparent” value in the series on human stromal cells is reported as “millimolar concentrations”.
